Laboratory results from ChEMBL document CHEMBL6120940, “Discovery of N-Aryl-N'-[4-(aryloxy)cyclohexyl]squaramide-Based Inhibitors of LXR/SREBP-1c Signaling Pathway Ameliorating Steatotic Liver Disease: Navigating the Role of SIRT6 Activation” (J Med Chem, 2024).

Molecular target: T1, Sterol regulatory element-binding protein 1 (Homo sapiens) (UniProt P36956)
T1 sequence (whole entry): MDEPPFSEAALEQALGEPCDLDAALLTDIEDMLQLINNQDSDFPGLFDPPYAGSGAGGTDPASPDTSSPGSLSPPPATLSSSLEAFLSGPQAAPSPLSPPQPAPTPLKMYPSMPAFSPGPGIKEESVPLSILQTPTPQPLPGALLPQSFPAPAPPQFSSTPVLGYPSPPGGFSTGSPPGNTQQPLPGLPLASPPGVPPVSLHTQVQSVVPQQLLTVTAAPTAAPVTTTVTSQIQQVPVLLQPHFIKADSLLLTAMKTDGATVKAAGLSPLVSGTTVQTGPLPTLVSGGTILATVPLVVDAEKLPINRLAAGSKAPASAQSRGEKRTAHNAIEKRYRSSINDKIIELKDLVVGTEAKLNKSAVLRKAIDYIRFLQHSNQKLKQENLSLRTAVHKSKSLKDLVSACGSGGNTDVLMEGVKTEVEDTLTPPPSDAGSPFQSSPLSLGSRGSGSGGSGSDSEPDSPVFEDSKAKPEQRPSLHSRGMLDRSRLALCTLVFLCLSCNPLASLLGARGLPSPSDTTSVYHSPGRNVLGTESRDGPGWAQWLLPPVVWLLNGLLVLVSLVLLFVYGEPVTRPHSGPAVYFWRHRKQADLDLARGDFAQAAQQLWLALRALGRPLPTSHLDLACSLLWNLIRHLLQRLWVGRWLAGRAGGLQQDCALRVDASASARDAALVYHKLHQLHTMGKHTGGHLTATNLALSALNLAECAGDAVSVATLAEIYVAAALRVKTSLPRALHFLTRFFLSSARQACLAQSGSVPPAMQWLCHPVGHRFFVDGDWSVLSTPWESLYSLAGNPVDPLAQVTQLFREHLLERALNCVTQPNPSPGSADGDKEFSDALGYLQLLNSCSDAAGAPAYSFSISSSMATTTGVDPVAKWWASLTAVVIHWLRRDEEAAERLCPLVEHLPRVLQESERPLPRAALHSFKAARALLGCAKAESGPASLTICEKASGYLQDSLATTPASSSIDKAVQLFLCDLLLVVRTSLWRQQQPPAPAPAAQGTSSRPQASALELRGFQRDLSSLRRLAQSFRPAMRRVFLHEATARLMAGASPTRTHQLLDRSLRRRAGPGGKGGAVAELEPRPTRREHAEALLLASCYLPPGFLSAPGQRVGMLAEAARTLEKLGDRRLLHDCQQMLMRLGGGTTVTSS
Assay: Inhibition of SREBP-1c transcriptional activity in HEK293 cells expressing LXRalpha/RXRalpha assessed as reduction in SRE-luciferase level pretreated with compound for 30 mins followed by T0901317 addition and measured after 12 hrs by Dual-Glo luciferase assay
Assay type: cell-based
Conditions: dose 2.5-5 µM, time 12.5 hrs

inhibition: Dose-dependent-effect
SMILES: COc1ccccc1Nc1c(N[C@H]2CC[C@H](Oc3ccc([N+](=O)[O-])cc3)CC2)c(=O)c1=O
